For the assay, the target named is T1, hQ23 (HEK-293 cell line stably transfected with one of the members of the KCNQ family) (Homo sapiens, UniProt O43525+O43526).
T1 construct: expressed in transfected cells; host or cells: HEK-293, stably transfected
Nature of the assay: Thallium flux assay for KCNQ channel blockers (FLIPR, BTC dye). In kind it is cell-based. The settings on record: hQ23 cells, thallium flux. Summed up: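 FLIPR thallium flux readout (BTC dye, 2 μM AM ester) in stably transfected KCNQ HEK-293 cells, chloride-free HEPES buffer pH 7.3, Tl2SO4 stimulus. IC50s were fitted with a single-site logistic equation across 10 points at 1:3 dilutions, defined as 50% of positive-control block; minimal active concentration meant signal ≥4 SD over DMSO controls.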

T1 sequence (O43526 whole entry): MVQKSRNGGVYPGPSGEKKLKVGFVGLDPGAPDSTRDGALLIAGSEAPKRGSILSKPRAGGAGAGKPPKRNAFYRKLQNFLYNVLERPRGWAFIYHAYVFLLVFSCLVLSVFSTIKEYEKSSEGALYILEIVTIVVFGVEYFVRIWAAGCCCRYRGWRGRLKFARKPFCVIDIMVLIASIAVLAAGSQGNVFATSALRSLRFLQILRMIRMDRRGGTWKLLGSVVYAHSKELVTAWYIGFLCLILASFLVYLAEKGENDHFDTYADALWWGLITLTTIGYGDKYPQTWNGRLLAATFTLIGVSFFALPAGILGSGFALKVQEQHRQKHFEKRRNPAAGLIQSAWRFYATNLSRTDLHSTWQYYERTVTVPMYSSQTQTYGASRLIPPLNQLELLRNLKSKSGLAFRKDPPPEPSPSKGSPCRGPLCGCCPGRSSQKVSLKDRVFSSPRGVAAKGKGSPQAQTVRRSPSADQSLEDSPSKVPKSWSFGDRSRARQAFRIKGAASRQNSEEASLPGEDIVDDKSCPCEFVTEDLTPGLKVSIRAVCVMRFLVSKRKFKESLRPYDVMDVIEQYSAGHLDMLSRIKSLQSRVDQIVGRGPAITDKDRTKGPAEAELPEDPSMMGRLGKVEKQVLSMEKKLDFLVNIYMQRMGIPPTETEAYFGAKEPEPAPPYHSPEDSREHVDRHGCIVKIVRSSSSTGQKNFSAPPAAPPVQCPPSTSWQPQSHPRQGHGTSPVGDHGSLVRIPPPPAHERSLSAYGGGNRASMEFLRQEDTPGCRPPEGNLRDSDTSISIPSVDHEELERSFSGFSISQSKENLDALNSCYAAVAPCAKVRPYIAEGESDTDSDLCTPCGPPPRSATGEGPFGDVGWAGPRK
T1 sequence (O43525 whole entry): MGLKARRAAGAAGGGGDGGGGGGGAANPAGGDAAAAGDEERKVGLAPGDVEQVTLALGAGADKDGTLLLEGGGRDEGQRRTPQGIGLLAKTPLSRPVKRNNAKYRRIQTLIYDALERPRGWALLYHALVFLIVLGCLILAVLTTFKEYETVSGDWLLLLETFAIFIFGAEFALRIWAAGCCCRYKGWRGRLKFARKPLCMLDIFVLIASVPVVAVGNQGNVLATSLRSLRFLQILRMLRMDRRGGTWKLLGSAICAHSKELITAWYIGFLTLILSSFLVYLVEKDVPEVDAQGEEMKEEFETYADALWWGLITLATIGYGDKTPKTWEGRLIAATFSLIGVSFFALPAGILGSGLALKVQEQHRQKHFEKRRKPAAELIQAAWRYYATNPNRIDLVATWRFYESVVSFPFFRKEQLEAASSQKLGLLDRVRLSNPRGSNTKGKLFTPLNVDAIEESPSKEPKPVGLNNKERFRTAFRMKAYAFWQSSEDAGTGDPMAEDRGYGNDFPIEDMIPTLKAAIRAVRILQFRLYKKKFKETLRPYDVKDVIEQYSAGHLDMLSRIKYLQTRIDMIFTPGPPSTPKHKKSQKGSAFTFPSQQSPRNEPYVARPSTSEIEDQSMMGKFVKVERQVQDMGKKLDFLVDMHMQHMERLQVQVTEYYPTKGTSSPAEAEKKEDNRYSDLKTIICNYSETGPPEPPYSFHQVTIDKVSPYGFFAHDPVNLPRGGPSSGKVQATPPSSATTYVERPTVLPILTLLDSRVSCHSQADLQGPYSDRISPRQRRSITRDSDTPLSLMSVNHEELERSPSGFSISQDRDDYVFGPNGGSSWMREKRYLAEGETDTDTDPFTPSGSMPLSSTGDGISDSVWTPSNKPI

The compound `O=C(NCc1cc(F)cc(C(F)(F)F)c1)c1cnc(NC2CCCC2)nc1C1(c2ccccc2)CCCC1` [Example 130, 5-pyrimidinecarboxamide, 2-(cyclopentylamino)-N-[[3-fluoro-5-(trifluoromethyl)phenyl]methyl]-4-(1-phenylcyclopentyl)-] gave an EC50 of 0.875 µM.

Consider `CC1CCC(Nc2ncc(C(=O)NC(C)c3ccc(F)cc3)c(C3(c4ccccc4)CCCC3)n2)CC1` (centres unmarked) [Example 131, 5-pyrimidinecarboxamide, N-[1-(4-fluorophenyl)ethyl]-2-[(4-methylcyclohexyl)amino]-4-(1-phenylcyclopentyl)-], for which it took 0.158 µM to reach a half-maximal effect (EC50).

Compound `CC(NC(=O)c1cnc(N2CCCC2)nc1C1(c2ccccc2)CCCC1)c1ccc(F)cc1` (centres unmarked) [Example 132, 5-pyrimidinecarboxamide, N-[1-(4-fluorophenyl)ethyl]-4-(1-phenylcyclopentyl)-2-(1-pyrrolidinyl)-] gave an EC50 of 0.195 µM.

In turn, `CC(NC(=O)c1cnc(N2CCN(C)CC2)nc1C1(c2ccccc2)CCCC1)c1ccc(F)cc1` (centres unmarked) [Example 133, 5-pyrimidinecarboxamide, N-[1-(4-fluorophenyl)ethyl]-2-(4-methyl-1-piperazinyl)-4-(1-phenylcyclopentyl)-] gave an EC50 of 0.442 µM.

Consider `CC1CCN(c2ncc(C(=O)NC(C)c3ccc(F)cc3)c(C3(c4ccccc4)CCCC3)n2)CC1` (centres unmarked) [Example 134, 5-pyrimidinecarboxamide, N-[1-(4-fluorophenyl)ethyl]-2-(4-methyl-1-piperidinyl)-4-(1-phenylcyclopentyl)-], for which the EC50 turned out to be 0.098 µM.

Take `CCC(C)Nc1ncc(C(=O)NC(C)c2ccc(F)cc2)c(C2(c3ccccc3)CCCC2)n1` (centres unmarked) [Example 135, 5-pyrimidinecarboxamide, N-[1-(4-fluorophenyl)ethyl]-2-[(1-methylpropyl)amino]-4-(1-phenylcyclopentyl)-]: the EC50 was 0.029 µM.

With `CC(NC(=O)c1cnc(NC2CCCC2)nc1C1(c2ccccc2)CCCC1)c1ccc(F)cc1` (centres unmarked) [Example 136, 5-pyrimidinecarboxamide, 2-(cyclopentylamino)-N-[1-(4-fluorophenyl)ethyl]-4-(1-phenylcyclopentyl)-], it took 0.413 µM to reach a half-maximal effect (EC50).

With `CC1CCC(Nc2ncc(C(=O)NCc3ccc(C(F)(F)F)cc3)c(C3(c4ccccc4)CCCC3)n2)CC1` (centres unmarked) [Example 137, 5-pyrimidinecarboxamide, 2-[(4-methylcyclohexyl)amino]-4-(1-phenylcyclopentyl)-N-[[4-(trifluoromethyl)phenyl]methyl]-], it took 0.964 µM to reach a half-maximal effect (EC50).

Turning to `CN1CCN(c2ncc(C(=O)N(C)Cc3ccccc3)c(C3(c4ccc(Cl)cc4)CCCC3)n2)CC1` [Example 139, 5-pyrimidinecarboxamide, 4-[1-(4-chlorophenyl)cyclopentyl]-N-methyl-2-(4-methyl-1-piperazinyl)-N-(phenylmethyl)-], a half-maximal response (EC50) required 0.07 µM.

`CC1CCN(c2ncc(C(=O)N(C)Cc3ccccc3)c(C3(c4ccc(Cl)cc4)CCCC3)n2)CC1` [Example 140, 5-pyrimidinecarboxamide, 4-[1-(4-chlorophenyl)cyclopentyl]-N-methyl-2-(4-methyl-1-piperidinyl)-N-(phenylmethyl)-] returned an EC50 of 0.246 µM.

On to `CN(Cc1ccccc1)C(=O)c1cnc(NC2CCCC2)nc1C1(c2ccc(Cl)cc2)CCCC1` [Example 141, 5-pyrimidinecarboxamide, 4-[1-(4-chlorophenyl)cyclopentyl]-2-(cyclopentylamino)-N-methyl-N-(phenylmethyl)-], for which the EC50 worked out at 0.183 µM.

For the compound `O=C(c1cnc(NC2CCCC2)nc1C1(c2ccc(Cl)cc2)CCCC1)N1CCc2ccccc2C1` [Example 142, isoquinoline, 2-[[4-[1-(4-chlorophenyl)cyclopentyl]-2-(cyclopentylamino)-5-pyrimidinyl]carbonyl]-1,2,3,4-tetrahydro-], the midpoint of the response, the EC50, lay at 0.535 µM.

With `CCC(C)Nc1ncc(C(=O)N(CC)C2CCCCC2)c(C2(c3ccc(Cl)cc3)CCCC2)n1` (centres unmarked) [Example 143, 5-pyrimidinecarboxamide, 4-[1-(4-chlorophenyl)cyclopentyl]-N-cyclohexyl-N-ethyl-2-[(1-methylpropyl)amino]-], a half-maximal effect (EC50) was put at 0.88 µM.

In turn, `CC1CCCN(C(=O)c2cnc(NC3CC3)nc2C2(c3ccc(Cl)cc3)CCCC2)C1` (centres unmarked) [Example 144, piperidine, 1-[[4-[1-(4-chlorophenyl)cyclopentyl]-2-(cyclopropylamino)-5-pyrimidinyl]carbonyl]-3-methyl-] came in with an EC50 of 0.884 µM.

Consider `CN(CCc1ccccc1)C(=O)c1cnc(NC2CC2)nc1C1(c2ccc(Cl)cc2)CCCC1` [Example 145, 5-pyrimidinecarboxamide, 4-[1-(4-chlorophenyl)cyclopentyl]-2-(cyclopropylamino)-N-methyl-N-(2-phenylethyl)-], for which the EC50 came out at 0.895 µM.

Turning to `CC1CCC(Nc2ncc(C(=O)N(C)CCc3ccccc3)c(C3(c4ccc(Cl)cc4)CCCC3)n2)CC1` (centres unmarked) [Example 146, 5-pyrimidinecarboxamide, 4-[1-(4-chlorophenyl)cyclopentyl]-N-methyl-2-[(4-methylcyclohexyl)amino]-N-(2-phenylethyl)-], the EC50 was determined as 0.664 µM.

Compound `CN(CCc1ccccc1)C(=O)c1cnc(N2CCCC2)nc1C1(c2ccc(Cl)cc2)CCCC1` [Example 147, 5-pyrimidinecarboxamide, 4-[1-(4-chlorophenyl)cyclopentyl]-N-methyl-N-(2-phenylethyl)-2-(1-pyrrolidinyl)-] yielded an EC50 of 0.169 µM.

The compound `CN(CCc1ccccc1)C(=O)c1cnc(NC2CCCC2)nc1C1(c2ccc(Cl)cc2)CCCC1` [Example 148, 5-pyrimidinecarboxamide, 4-[1-(4-chlorophenyl)cyclopentyl]-2-(cyclopentylamino)-N-methyl-N-(2-phenylethyl)-] had an EC50 of 0.597 µM.

Consider `CCN(Cc1ccccc1)C(=O)c1cnc(NC2CCCC2)nc1C1(c2ccc(Cl)cc2)CCCC1` [Example 149, 5-pyrimidinecarboxamide, 4-[1-(4-chlorophenyl)cyclopentyl]-2-(cyclopentylamino)-N-ethyl-N-(phenylmethyl)-], for which the EC50 came to 0.525 µM.

Regarding `O=C(NCc1ccc2c(c1)OCO2)c1cnc(NC2CC2)nc1C1(c2ccc(Cl)cc2)CCCC1` [Example 150, 5-pyrimidinecarboxamide, N-(1,3-benzodioxol-5-ylmethyl)-4-[1-(4-chlorophenyl)cyclopentyl]-2-(cyclopropylamino)-], the response was half-maximal at 0.717 µM (EC50).

`CC1CCC(Nc2ncc(C(=O)NCc3ccc4c(c3)OCO4)c(C3(c4ccc(Cl)cc4)CCCC3)n2)CC1` (centres unmarked) [Example 151, 5-pyrimidinecarboxamide, N-(1,3-benzodioxol-5-ylmethyl)-4-[1-(4-chlorophenyl)cyclopentyl]-2-[(4-methylcyclohexyl)amino]-] had an EC50 of 0.119 µM.

`O=C(NCc1ccc2c(c1)OCO2)c1cnc(N2CCCC2)nc1C1(c2ccc(Cl)cc2)CCCC1` [Example 152, 5-pyrimidinecarboxamide, N-(1,3-benzodioxol-5-ylmethyl)-4-[1-(4-chlorophenyl)cyclopentyl]-2-(1-pyrrolidinyl)-] showed an EC50 of 0.107 µM.

Consider `CC1CCCN(c2ncc(C(=O)NCc3ccc4c(c3)OCO4)c(C3(c4ccc(Cl)cc4)CCCC3)n2)C1` (centres unmarked) [Example 153, 5-pyrimidinecarboxamide, N-(1,3-benzodioxol-5-ylmethyl)-4-[1-(4-chlorophenyl)cyclopentyl]-2-(3-methyl-1-piperidinyl)-], for which the EC50 is 0.01 µM.
